In US20250130225A1, “SUBSTRATES FOR IMAGING GLUCOCEREBROSIDASE ACTIVITY” (SIMON FRASER UNIVERSITY, priority 2021, published 2025):

Legend:
[1] = Fluorescence emission spectrum and quenching efficiency of substrate 1 versus BODIPY FL-acid; type: physicochemical
Experimental: Fluorescence emission spectra for substrate 1 and BODIPY® FL-acid: The emission spectra were obtained for substrate 1 and BODIPY® FL-acid in citrate-phosphate buffer (150 mM; pH 5.4) containing 1% DMSO and 0.25% taurodeoxycholate. Data were collected using a Molecular Devices plate reader ([…]). […] The excitation wavelength used was 485 nm and the emission wavelength was 513 nm.
Determination of the quenching efficiencies for substrate 1 using concentration dependent variation in the fluorescence emission of substrate 1 and its corresponding fluorophore BODIPY® FL-acid: The quenching efficiencies were determined by comparing the fluorescence emission standard curves of substrate 1 and comparing it to that of BODIPY® Fl-acid.

GCase = biological target: T1, GCase (Homo sapiens, UniProt P04062); assay: GCase inhibition by AT3375 in live SK-N-SH cells read with substrate 1; type: cell-based; details: 10 μM AT3375 with 5 μM substrate 1, 2 h
T1 construct: High content imaging of SK-N-SH cells incubated for 2 h; endogenous in cells; host or cells: SK-N-SH
T1 sequence (P04062 40-536): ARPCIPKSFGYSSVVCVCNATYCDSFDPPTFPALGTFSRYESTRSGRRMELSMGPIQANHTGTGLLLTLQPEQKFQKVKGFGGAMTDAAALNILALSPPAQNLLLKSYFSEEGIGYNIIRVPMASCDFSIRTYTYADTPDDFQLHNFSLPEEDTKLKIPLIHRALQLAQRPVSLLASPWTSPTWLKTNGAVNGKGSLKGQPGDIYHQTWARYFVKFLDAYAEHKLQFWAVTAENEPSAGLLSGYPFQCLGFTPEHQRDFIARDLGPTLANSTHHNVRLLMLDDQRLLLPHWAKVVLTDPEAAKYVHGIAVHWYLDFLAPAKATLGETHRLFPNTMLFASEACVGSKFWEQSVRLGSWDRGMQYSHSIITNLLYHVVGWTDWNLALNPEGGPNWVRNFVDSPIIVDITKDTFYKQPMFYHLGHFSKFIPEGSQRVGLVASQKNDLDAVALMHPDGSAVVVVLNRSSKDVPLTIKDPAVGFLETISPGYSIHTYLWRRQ
Experimental: After incubation at 37° C. and 5% CO2 for 2 h, the media was removed and the cells were washed.
After incubation at 37° C. and 5% CO2 for 2 h, the media was removed, and the cells were washed. The plate was then imaged using a Molecular Devices ImageXpress XLS High-Content Imager. From the images, the total mean integrated intensity was measured for the FITC channel and divided by the number of cells within the imaging site as determined by the DAPI staining.

[2] = biological target: T2, purified recombinant GCase (Homo sapiens, UniProt P04062); assay: In-vitro kinetic assay with purified recombinant GCase; type: biochemical; details: same kinetic assay, substrate 3 vs 9b
T2 construct: purchased R&D Systems
T2 sequence (P04062 40-536): T1 sequence (P04062 40-536)
Experimental: (§1) In-vitro kinetic assay for substrate 1. Continuous assays were performed at 30° C. in citrate-phosphate buffer (150 mM; pH 5.4) containing 0.25% taurodeoxycholate. The concentrations of substrate 1 used in assays were 0.39, 0.78, 1.56, 3.13 6.25, 12.5, 25 and 50 μM. Reactions were initiated by the addition of purified recombinant GCase (2.5 nM, R&D Systems) and the reaction was monitored continuously over 1200 seconds to determine the initial rate of change of fluorescence. Standard curves were constructed using BODIPY® Fl-acid using the same buffer conditions. […] Assays were carried out in triplicate.
as §1, with “Comparative In-vitro” for “In-vitro”, “substrate 3 and 9b.” for “substrate 1.”, “of substrates 3 and 9b” for “of substrate 1”, “were 0.156, 0.313, 0.625, 1.25, 2.5, 5, 10,” for “were 0.39, 0.78, 1.56, 3.13 6.25, 12.5, 25”, “and 20” for “and 50”, “using TAMRA and BODIPY-576” for “using BODIPY® Fl-acid”

For COc1cc(/N=N/c2ccc(C)cc2[N+](=O)[O-])c(C)cc1/N=N/c1ccc(N(C)CCCC(=O)NCCCO[C@@H]2O[C@H](COCc3cn(CCCNC(=O)[C@H](CCCCN(C)C)NC(=O)CCC4=[N+]5C(=Cc6c(C)cc(C)n6[B-]5(F)F)C=C4)nn3)[C@@H](O)[C@H](O)[C@H]2O)cc1 [substrate 1, (S)-2-(3-(5,5-difluoro-7,9-dimethyl-dipyrrolo[1,2-c:2′,1′-f][1,3,2]diazaborinin-4-ium-5-uid-3-yl)propanamido)-6-(dimethylamino)-N-(3-(4-((((2R,3S,4S,5R,6R)-3,4,5-trihydroxy-6-(3-(4-((4-((E)-(2-methoxy-5-methyl-4-((E)-(4-methyl-2-nitrophenyl)diazenyl)phenyl)diazenyl)phenyl)(methyl)amino)butanamido)propoxy)tetrahydro-2H-pyran-2-yl)methoxy)methyl)-1H-1,2,3-triazol-1-yl)propyl)hexanamide], the “fluorescence emission of intact substrate compared to free fluorophore BODIPY FL-acid” value ([1]; 6.25 μM, citrate-phosphate buffer 150 mM, pH 5.4, excitation 485 nm, emission 513 nm) was “strikingly little fluorescence” and the quenching efficiency ([1]; fluorescence emission standard curves compared to BODIPY Fl-acid) was “greater than 99.7%”.
In the case of O[C@H]1[C@H](O)CNC[C@@H]1C(F)F [AT3375, (3R,4R,5S)-5-(difluoromethyl)piperidine-3,4-diol], the “effect on fluorescent signal from substrate 1” value (GCase) is reported as “significant reduction of the punctuated fluorescent signal”.
With COc1cc(/N=N/c2ccc([N+](=O)[O-])cc2)c(OC)cc1/N=N/c1ccc(N(C)CCCC(=O)NCCc2ccc(O[C@@H]3O[C@H](COCCCCn4cc(CNC(=O)[C@H](CCCCN(C)C)NC(=O)c5ccc(-c6c7ccc(=[N+](C)C)cc-7oc7cc(N(C)C)ccc67)c(C(=O)O)c5)nn4)[C@@H](O)[C@H](O)[C@H]3O)cc2)cc1 [substrate 3, 5-(((S)-1-(((1-(4-(((2R,3S,4S,5R,6S)-6-(4-(2-(4-((4-((E)-(2,5-dimethoxy-4-((E)-(4-nitrophenyl)diazenyl)phenyl)diazenyl)phenyl)(methyl)amino)butanamido)ethyl)phenoxy)-3,4,5-trihydroxytetrahydro-2H-pyran-2-yl)methoxy)butyl)-1H-1,2,3-triazol-4-yl)methyl)amino)-6-(dimethylamino)-1-oxohexan-2-yl)carbamoyl)-2-(6-(dimethylamino)-3-(dimethyliminio)-3H-xanthen-9-yl)benzoate] the “second order rate constant relative to 9b” value [2] was “more than 5 fold”.
